# Reference: ChEMBL document CHEMBL5532708, “Tetrahydroxanthene-1,3(2H)-diones and Oxidized Hexadiene Derivatives from Uvaria leptopoda and Their Biological Activities” (J Nat Prod, 2024)
# Legend:
# SNU1 = assay: Cytotoxicity against human SNU1 cells assessed as reduction in cell viability incubated for 24 hrs by MTT assay; assay type: functional, cell-based; settings: SNU1, 24 h
# RAW264.7 [1] = assay: Antiinflammatory activity in mouse RAW264.7 cells assessed as inhibition of LPS-induced NO production at 15 uM incubated for 24 hrs by Griess reagent based analysis relative to control; assay type: functional; set-up: scale not given: the % may be the effect or the level left
# [2] = Cytotoxicity against mouse RAW264.7 cells assessed as cell viability at 15 uM incubated for 24 hrs by MTT assay relative to control; assay type: toxicity, cell-based; settings: read-out: Activity
# Plasmodium falciparum = assay: Antiplasmodial activity against multidrug resistant Plasmodium falciparum K1 assessed as reduction in parasite growth by [3H]-hypoxanthine incorporation assay; assay type: functional, organism-based
# [3] = Cytotoxicity against human Lu1 cells assessed as inhibition of cell growth incubated for 72 hrs by SRB assay; assay type: functional, cell-based; settings: Lu1, 72 h
# RAW264.7 [4] = assay: Antiinflammatory activity in mouse RAW264.7 cells assessed as inhibition of LPS-induced NO production incubated for 24 hrs by Griess reagent based analysis; assay type: functional, cell-based; settings: RAW264.7, 24 h
# KB = assay: Cytotoxicity against human KB cells by SRB assay; assay type: functional, cell-based
SMILES,IC50 (SNU1),Activity (RAW264.7 [1]),"viability at 24 h, 15 µM [2]",also measured
COc1ccc2c(c1)C[C@H]1[C@@H](OC(=O)c3ccccc3)[C@H](OC(C)=O)C(COC(=O)c3ccccc3)=C[C@H]1O2,130 µM,15%,> 90%,
COc1cc(OC)c(C(=O)/C=C/c2ccccc2)c(O)c1OC,11 µM,-11%,> 90%,
COc1cc(OC)c([C@@H]2Oc3c(OC)c(OC)cc(OC)c3[C@@H](/C=C/c3ccccc3)[C@H]2C(=O)c2ccccc2)c(O)c1OC,,,,IC50 (Plasmodium falciparum): 3.02 µg/mL
COc1ccc2c(c1)C[C@]1(OC)C(=O)/C(=C(/O)[C@H]3[C@H](c4ccccc4)[C@H](/C(O)=C4/C(=O)C[C@@]5(OC)Oc6ccc(OC)cc6C[C@@]5(OC)C4=O)[C@H]3c3ccccc3)C(=O)C[C@]1(OC)O2,18 µM,6.5%,> 90%,
O=C1c2cc(O)ccc2-c2c3c(cc4ccnc1c24)OCO3,,,,IC50 [3]: 9.22 µg/mL
CC(C)[C@@H](C)/C=C/[C@@H](C)[C@H]1CCC2=C3C=CC4=CC(=O)CC[C@]4(C)[C@H]3CC[C@@]21C,,,,IC50 [3]: 10.2 µg/mL
COc1ccc2c(c1)C[C@]1(OC)C(=O)/C(=C(O)\C=C\c3ccccc3)C(=O)C[C@]1(OC)O2 (racemic),34 µM,73%,> 90%,IC50 (RAW264.7 [4]): 6.7 µM
CC(=O)OC[C@@](O)(COC(=O)c1ccccc1)[C@@H](O)/C=C\COC(=O)c1ccccc1,82 µM,14%,> 90%,
O=C(O)Cc1ccccc1Nc1c(Cl)cccc1Cl [DICLOFENAC SODIUM],,,,IC50 (RAW264.7 [4]): 331 µM
CC(=O)OC[C@@]1(COC(=O)c2ccccc2)O[C@H]1/C=C\COC(=O)c1ccccc1,37 µM,12%,> 90%,
COc1cc2cc(-c3ccc(O)cc3)ccc2cc1O,,,,IC50 (KB): 5.05 µM
